Where two headings read alike, the source gives them in different places.
Tests used:
[1] = test system: ERK phosphorylation (Thr 202/Tyr 204) in NCI-H1373 cells; test: ERK phosphorylation inhibitory action in NCI-H1373 (Cell ELISA); type: cell-based, Human; conditions: read-out: IC50 (ERK phosphorylation inhibition)
In short: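 KRAS G12C NCI-H1373 cells (2×10^4/well) were treated with compound (six points, 1,000–0.3 nM final) for 2 h. Phospho-ERK Thr202/Tyr204 was measured by in-cell ELISA with an IRDye 800CW secondary antibody. IC50 was fitted by sigmoid-Emax regression against DMSO (0%) and 1 μM trametinib (100%).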

pERK in NCI-H1373 tumor = test: Intratumoral pERK inhibitory action in NCI-H1373 tumor of nude mice (TR-FRET); type: in vivo, mouse; conditions: for inhibition at 3 mg/kg: read-out: pERK inhibition (%); for inhibition at 10 mg/kg / pERK inhibition (%): 10 mg/kg
Procedure: Evaluation of Intratumoral pERK Inhibitory Action
The phosphorylation amount of ERK in tumor sample after administration of test compound was examined by using pERK measurement kit (Advanced ERK phospho-T202/Y204 kit, Cisbio co., Ltd) through a TR-FRET method.
2.0 to 5.0×10^6 NCI-H1373 cells were prepared by using a solution in which an equivalent amount of Matrigel (Becton. Dickinson and Company) was added to PBS, were injected subcutaneously in a volume of 100 μL and planted to male nude mice of 4-5 weeks old (CAnN.Cg-Foxn 1 nu/CrlCrlj (nu/nu), Charles River Laboratories Japan, Inc.), and then the male nude mice were used for the test 15 to 26 days later. The test was conducted with three mice in a solvent group and three mice in a test compound administration group, and the test compounds were prepared by using a solvent such that the dosage thereof is as indicated in Table 4. The test compound was administered subcutaneously or orally. For subcutaneous administration, physiological saline supplemented with equimolar hydrochloric acid was used as a solvent. For oral administration, 6% 2-hydroxypropyl-β-cyclodextrin (Sigma-Aldrich Co. LLC) was used as a solvent. Six hours after the administration, a tumor was excised from a cervical dislocated mouse under isoflurane anesthesia, and a part thereof was put into a 2 mL Eppendorf tube and frozen using liquid nitrogen. The tumor sample was stored in a deep freezer at −80° C. until it was subjected to the pERK measurement test.
500 μL of lysis buffer 1 (Phospholysis buffer [Cisbio Co., Ltd], Complete EDTA free [Roche Diagnostics K.K.], Phosphatase inhibitor cocktail 2 [Sigma-Aldrich Co. LLC]) and one bead (5 mm YTZ ball [Nikkato Corp.]) was added to the tumor sample, and crushed (frequency 25/s for 3 minutes) by using Tissue Lyser II (QIAGEN GmbH). The whole amount was transferred to a new tube and centrifuged (20,400×g for 10 minutes, 4° C.) by using a micro amount high speed cooling centrifuge so as to obtain a tumor lysate which is a supernatant. Protein quantification of tumor lysate was performed by using a protein quantification kit (Pierce 660 nm Protein Assay Kit [Thermo Fisher Scientific Inc.]), and each sample was diluted by using lysis buffer 2 (Phosphorysis buffer [Cisbio Co., Ltd], Blocking Agent [attached to pERK measurement kit]) such that the amount thereof is to be a final concentration of 0.5 μg/μL.
Each of p-ERK1/2 Cryptate antibody and p-ERK1/2 d2 antibody (attached to pERK measurement kit) was diluted 20-fold with each detection buffer (attached to pERK measurement kit), and thereby a mixed solution of these two types of antibodies was prepared. A mixed solution of antibody was added to a 384 well plate at a volume of 4 μL/well. Further, tumor lysate diluted to 0.5 μg/μL was added at a volume of 16 μL/well. After standing at room temperature in a wet box for about 17 hours, the fluorescence intensity at 620 nm and 665 nm was measured under the condition of excitation wavelength of 337 nm by using EnVision 2103 Multilabel Reader (PerkinElmer Co., Ltd.).

[2] = Homo sapiens, NCI-H1373, 2 h, NCI-H1373 cells, cultured for 2 hours, 100% = 1 μM Trametinib
[3] = Mus musculus, NCI-H1373, po, 6 h, Oral administration, tumor six hours after administration
[4] = Mus musculus, NCI-H1373, sc, 6 h, Subcutaneous administration, tumor six hours after administration
[5] = Mus musculus, NCI-H1373, sc, 6 h
[6] = NCI-H1373 cells, cultured for 2 hours, 100% = 1 μM Trametinib
[7] = Oral administration, tumor six hours after administration

## C=CC(=O)N1CC2(CCN(c3nc(OC4CCN(C5CCOCC5)CC4)nc4c(OCC(F)(F)F)c(-c5c(C)ccc6[nH]ncc56)c(C=C)cc34)CC2)C1 (single isomer, unassigned) [Ex 39]
[1]; [2]
  IC50: 3 nM
pERK in NCI-H1373 tumor; [3]
  inhibition at 10 mg/kg: 43%

## C=CC(=O)N1CCN(c2nc(OC3CCN(C)CC3)nc3c(F)c(-c4c(C)ccc5[nH]ncc45)c(Cl)cc23)CC1 [Compound C, reference compound]
[1]; [2]
  IC50: 210 nM
pERK in NCI-H1373 tumor; Mus musculus, NCI-H1373, sc, 6 h, Subcutaneous administration, 30 mg/kg, tumor six hours after administration
  inhibition at 30 mg/kg: 54%

## C=CC(=O)N1CC2(CCN(c3nc(OC4CCN(C)CC4)nc4c(OCC)c(-c5c(C)ccc6[nH]ncc56)c(C5CC5)cc34)CC2)C1 [Ex 2]
[1]; [2]
  IC50: 4.4 nM
pERK in NCI-H1373 tumor; [4]
  inhibition at 1 mg/kg: 54%

## C=CC(=O)N1CC2(CCN(c3nc(OC4CCN(C)CC4)nc4c(OCC(F)F)c(-c5c(C)ccc6[nH]ncc56)c(C5CC5)cc34)CC2)C1 [Ex 3]
[1]; [2]
  IC50: 3.3 nM
pERK in NCI-H1373 tumor; [4]
  inhibition at 1 mg/kg: 57%

## C=CC(=O)N1CC2(CCN(c3nc(OC[C@@H]4CCCN4C)nc4c(OCC(F)F)c(-c5c(C)ccc6[nH]ncc56)c(C5CC5)cc34)CC2)C1 [Ex 4]
[1]; [2]
  IC50: 2.9 nM
pERK in NCI-H1373 tumor; [4]
  inhibition at 1 mg/kg: 58%

## C=CC(=O)N1CC2(CCN(c3nc(OC4CCN(CC)CC4)nc4c(OCC)c(-c5c(C)ccc6[nH]ncc56)c(C=C)cc34)CC2)C1 [Ex 7]
[1]; [2]
  IC50: 8.8 nM
pERK in NCI-H1373 tumor; Mus musculus, NCI-H1373, sc, 6 h, Subcutaneous administration, 3 mg/kg, tumor six hours after administration
  inhibition at 3 mg/kg: 59%

## C=CC(=O)N1CC2(CCN(c3nc(OC4CCN(C)CC4)nc4c(OCC)c(-c5c(C)ccc6[nH]ncc56)c(C=C)cc34)CC2)C1 [Ex 24]
[1]; [2]
  IC50: 3.7 nM
pERK in NCI-H1373 tumor; Mus musculus, NCI-H1373, po, 6 h, Oral administration, 40 mg/kg, tumor six hours after administration
  inhibition at 40 mg/kg: 72%

## C=CC(=O)N1CC2(CCN(c3nc(OC4CCN(CCOC)CC4)nc4c(OCC(F)(F)F)c(-c5c(C)ccc6[nH]ncc56)c(C5CC5)cc34)CC2)C1 [Ex 25]
[1]; [2]
  IC50: 2.5 nM
pERK in NCI-H1373 tumor; [3]
  inhibition at 10 mg/kg: 66%

## C=CC(=O)N1CC2(CCN(c3nc(OC4CCN(CCOC)CC4)nc4c(OCC(F)(F)F)c(-c5c(C)ccc6[nH]ncc56)c(C=C)cc34)CC2)C1 [Ex 26]
[1]; [2]
  IC50: 3.3 nM
pERK in NCI-H1373 tumor; [3]
  inhibition at 10 mg/kg: 50%

## C=CC(=O)N1CC2(CCN(c3nc(OC4CCN(CCCOC)CC4)nc4c(OCC(F)(F)F)c(-c5c(C)ccc6[nH]ncc56)c(C5CC5)cc34)CC2)C1 [Ex 28]
[1]; [2]
  IC50: 3.5 nM
pERK in NCI-H1373 tumor; [3]
  inhibition at 10 mg/kg: 46%

## C=CC(=O)N1CC2(CCN(c3nc(OC4CCN(C5CCOCC5)CC4)nc4c(OCC(F)(F)F)c(-c5c(C)ccc6[nH]ncc56)c(C=C)cc34)CC2)C1 [Ex 30]
[1]; [2]
  IC50: 3.1 nM
pERK in NCI-H1373 tumor; [3]
  inhibition at 10 mg/kg: 56%

## C=CC(=O)N1CC2(CCN(c3nc(OC[C@@H]4CCCN4C)nc4c(OC5CCC5)c(-c5c(C)ccc6[nH]ncc56)c(C=C)cc34)CC2)C1 [Example 15]
[1]; Homo sapiens, NCI-H1373, 2 h
  IC50: 11 nM
pERK in NCI-H1373 tumor; [5]
  inhibition at 3 mg/kg: 53%

## C=CC(=O)N1CC2(CCN(c3nc(OC[C@@H]4CCCN4C)nc4c(OCC)c(-c5c(C)ccc6[nH]ncc56)c(C=C)cc34)CC2)C1 [Example 16]
[1]; Homo sapiens, NCI-H1373, 2 h
  IC50: 9.1 nM
pERK in NCI-H1373 tumor; [5]
  inhibition at 3 mg/kg: 51%

## C=CC(=O)N1CC2(CCN(c3nc(OC4CCN(CCOCC)CC4)nc4c(OCC(F)(F)F)c(-c5c(C)ccc6[nH]ncc56)c(C=C)cc34)CC2)C1 [Example 29]
[1]; [2]
  IC50: 4.2 nM
pERK in NCI-H1373 tumor; [3]
  inhibition at 10 mg/kg: 62%

## C=CC(=O)N1CC2(CCN(c3nc(OC4CCN(CCOC)CC4)nc4c(OCC(F)F)c(-c5c(C)ccc6[nH]ncc56)c(C5CC5)cc34)CC2)C1 [Example 32]
[1]; [2]
  IC50: 5.7 nM
pERK in NCI-H1373 tumor; [3]
  inhibition at 10 mg/kg: 55%

## C=CC(=O)N1CC2(CCN(c3nc(OC4CCN(C5COC5)CC4)nc4c(OCC(F)(F)F)c(-c5c(C)ccc6[nH]ncc56)c(C=C)cc34)CC2)C1 [Example 33]
[1]; [2]
  IC50: 4.6 nM
pERK in NCI-H1373 tumor; [3]
  inhibition at 10 mg/kg: 71%

## C=CC(=O)N1CC2(CCN(c3nc(OC4CCN(C5COC5)CC4)nc4c(OCC)c(-c5c(C)ccc6[nH]ncc56)c(C5CC5)cc34)CC2)C1 [Example 34]
[1]; [2]
  IC50: 5.8 nM
pERK in NCI-H1373 tumor; [3]
  inhibition at 10 mg/kg: 54%

## C=CC(=O)N1CC2(CCN(c3nc(OC4CCN(CCOC)CC4)nc4c(OCC(F)(F)F)c(-c5c(C)ccc6[nH]ncc56)c(C5CC5)cc34)CC2)C1 [Example 35]
[1]; [6]
  IC50: 2.5 nM
pERK in NCI-H1373 tumor; [7]
  pERK inhibition (%): 68%

## C=CC(=O)N1CC2(CCN(c3nc(OC4CCN(CCOCC)CC4)nc4c(OCC(F)(F)F)c(-c5c(C)ccc6[nH]ncc56)c(C=C)cc34)CC2)C1 [Example 37]
[1]; [6]
  IC50: 2.5 nM
pERK in NCI-H1373 tumor; [7]
  pERK inhibition (%): 63%

## C=CC(=O)N1CC2(CCN(c3nc(OC4CCN(CC(C)(C)O)CC4)nc4c(OCC(F)(F)F)c(-c5c(C)ccc6[nH]ncc56)c(C=C)cc34)CC2)C1 [Example 40]
[1]; [6]
  IC50: 3.1 nM
pERK in NCI-H1373 tumor; [7]
  pERK inhibition (%): 58%

## C=CC(=O)N1CC2(CCN(c3nc(N4CCN(C)CC4)nc4c(OCC(F)(F)F)c(-c5c(C)ccc6[nH]ncc56)c(C=C)cc34)CC2)C1 [Example 50]
[1]; [2]
  IC50: 6.4 nM
pERK in NCI-H1373 tumor; [3]
  inhibition at 10 mg/kg: 63%

## C=CC(=O)N1CC2(CCN(c3nc(OC4CCN(C)CC4F)nc4c(OCC(F)(F)F)c(-c5c(C)ccc6[nH]ncc56)c(C=C)cc34)CC2)C1 (stereo not drawn) [Example 52]
[1]; [2]
  IC50: 6.7 nM
pERK in NCI-H1373 tumor; [3]
  inhibition at 10 mg/kg: 68%

## C=CC(=O)N1CC2(CCN(c3nc(OC4CCN(Cc5ccccn5)CC4)nc4c(OCC(F)(F)F)c(-c5c(C)ccc6[nH]ncc56)c(C=C)cc34)CC2)C1 [Example 56]
[1]; [2]
  IC50: 7.7 nM
pERK in NCI-H1373 tumor; [3]
  inhibition at 10 mg/kg: 53%

## C=CC(=O)N1CC2(CCN(c3nc(N4CC(N(C)C)C4)nc4c(OCC(F)(F)F)c(-c5c(C)ccc6[nH]ncc56)c(C=C)cc34)CC2)C1 [Example 65]
[1]; [2]
  IC50: 9.3 nM
pERK in NCI-H1373 tumor; [3]
  inhibition at 10 mg/kg: 68%
